Patent US20060069049A1, “Methods and reagents related to foxo” (President and Fellows of Harvard College, priority 2003, published 2006)

What was measured:
[1] = molecular target: Constitutively active FOXO3A constitutively active (AKT phosphorylation sites, residues not stated) (Homo sapiens) (UniProt O43524); experiment: cell_activity; details: luciferase in adult mouse muscle
[2] = molecular target: Wild-type FOXO3A (Homo sapiens) (UniProt O43524); experiment: cell_activity; details: luciferase in adult mouse muscle
atrogin-1 [3] = experiment: Northern blot of atrogin-1 mRNA in C2C12 myotubes; assay type: cell-based, mouse
Method: (§1) C2C12 mouse myoblasts (ATCC) were cultured in DMEM 10% FCS (ATCC) until the cells reached confluence. At that time, the medium was replaced with DMEM 2% horse serum (HS) (ATCC) (“differentiation medium”) and incubated for 4 days to induce myotube formation before proceeding with experiments. Pharmacological agents were variously used at the following final concentrations: dexamethasone (1 μM; Sigma), IGF-1 (10 ng/ml; Sigma), LiCl (10 mM; Sigma), LY294002 (10 μM, from 10 mM stock in DMSO, Calbiochem). For infection, myotubes were incubated with adenovirus at a multiplicity of infection (MOI) of 250 in differentiation medium for 18 h, and then medium was replaced. Under these conditions, infection efficiency was greater than 90%. Typical experiments for RNA and protein analysis were performed in 6-well plates. Myotube diameter was quantified as follows: five different fields at 100× magnification were chosen randomly and myotubes were measured using IMAGE software (Scion, Frederick, Md.) as previously performed (Rommel et al., 2001). All data are expressed as the mean of five measurements taken along the length of the myotube±SEM. Comparisons were made using the student's t test, with p<0.05 being considered statistically significant.
After incubation, myotubes were washed in PBS and total RNA was extracted using TRizo1 reagent (Invitrogen) according to the manufacturer's specifications. Northern blotting was performed as described elsewhere (Gomes et al., 2001). Briefly, total RNA was separated on formaldehyde-agarose gels, transferred to Zeta-Probe membrane (Bio-Rad) and UV-crosslinked. Membranes were hybridized with a full length mouse atrogin-1 probe, at 65 ° C., in Church buffer (Church and Gilbert, 1984), and analyzed by using a Fuji Phosphorimager. Blots were stripped and reprobed with a mouse GADPH probe (Ambion) to ensure equal-loading and gel transfer. The relative amounts of the bands were quantified by densitometry.

Foxo1, 3 and Foxo4 = experiment: Immunoblot of phosphorylated Foxo factors in C2C12 myotubes; assay type: cell-based, mouse
Method: (§2) Anti-phospho-AKT (Ser473), anti-phospho-mTOR (Ser2448), anti-phospho-p70S6K (Thr389), anti-phospho-Foxo1 (Ser 256), anti-phospho-Foxo4 (Ser 193), anti-AKT, anti-p70S6K and anti-Foxo1 were purchased from Cell Signaling. Anti-phospho-Foxo3 (Thr32) and the FKHR (Foxo1)-GST fusion protein were from Upstate. All primary antibodies were rabbit potyclonal antibodies. HRP-conjugated goat anti-rabbit antibody was from Promega.
C2C12 mouse myoblasts (ATCC) were cultured in DMEM 10% FCS (ATCC) until the cells reached confluence. At that time, the medium was replaced with DMEM 2% horse serum (HS) (ATCC) (“differentiation medium”) and incubated for 4 days to induce myotube formation before proceeding with experiments. […] Myotube diameter was quantified as follows: five different fields at 100× magnification were chosen randomly and myotubes were measured using IMAGE software (Scion, Frederick, Md.) as previously performed (Rommel et al., 2001). All data are expressed as the mean of five measurements taken along the length of the myotube±SEM. […]
(§3) Myotube protein was also extracted with TRizo1 reagent according to the manufacturer's instructions. Protein concentration was determined by BCA assay (Pierce). […] The relative amounts of the bands were quantified by densitometry using ImageJ software.

S6K = experiment: Immunoblot of phosphorylated S6K in C2C12 myotubes; assay type: cell-based, mouse
Method: as §2, §1
as §3, with “(Pierce). SDS-PAGE was performed on 4-12% gradient gels (Novex, Invitrogen) loading 20 μg protein/lane.” for “(Pierce).”

C2C12 myotubes = experiment: Myotube diameter in C2C12 myotube cultures; assay type: cell-based, mouse; details: dexamethasone (1 μM) for 24 hrs
Method: as §1

AKT = experiment: Immunoblot of phospho-AKT to total AKT in C2C12 myotubes; assay type: cell-based, mouse; details: dexamethasone treatment for 24 hrs, densitometric analysis
Method: Myotube protein was also extracted with TRizo1 reagent according to the manufacturer's instructions. Protein concentration was determined by BCA assay (Pierce). SDS-PAGE was performed on 4-12% gradient gels (Novex, Invitrogen) loading 20 μg protein/lane. Westerns were performed as previously (Gomes et al., 2001) and were visualized with ECL detection reagents (Amersham). […] The relative amounts of the bands were quantified by densitometry using ImageJ software.

atrogin-1 [4] = details: reported from Sacheck et al. (manuscript submitted) or Li et al. 2003a; cited from earlier work
FoxoGST = molecular target: T1, FoxoGST (Homo sapiens, UniProt Q12778); experiment: Electrophoretic mobility shift assay with purified FoxoGST; assay type: binding; details: for competition of FoxoGST-IGFBP1 complex formation by unlabeled oligonucleotide: 100-fold molar excess of cold competitor; for binding of FoxoGST to 32P-labeled oligonucleotide: gel shift; for competition of FoxoGST-AT Foxo 1 complex formation: increasing amounts of unlabeled oligonucleotide
T1 construct: purchased Upstate
From the text: Double stranded oligonucleotides were labeled by T4 Polynucleotide kinase and […] (Promega). The following pairs of oligonucleotides were used (Forkhead sites are underlined): IGFBP1: 5′-[…]-3′ (SEQ ID NO:9) and 5′-[…] (SEQ ID NO:10); SP 1:5′-[…]-3′ (SEQ ID NO:11) and 5′[…]-3′ (SEQ ID NO:12); ATFoxo 1: 5′-GGGATAAATACT-GTGCTCGGGCAG-3′ (SEQ ID NO:13) and 5′-[…]-3′ (SEQ ID NO:14). ATFoxo 1mut: 5′-[…]-3′ (SEQ ID NO:15) and 5′ […]-3′ (SEQ ID NO:16). Reactions using the Gel Shift Assay System (Promega) contained the cold competitor (100-fold molar excess over labeled oligonucleotide) and 1 μl of purified FoxoGST (Upstate), and were incubated at room temperature for 10 min. The samples were then mixed with ^32P-labeled oligonucleotides for 20 min and loaded on Novex 6% DNA retardation gels (Invitrogen). After electrophoresis the gels were dried and analyzed using a Fuji Phosphorimager system.

T1 sequence (Q12778 whole entry): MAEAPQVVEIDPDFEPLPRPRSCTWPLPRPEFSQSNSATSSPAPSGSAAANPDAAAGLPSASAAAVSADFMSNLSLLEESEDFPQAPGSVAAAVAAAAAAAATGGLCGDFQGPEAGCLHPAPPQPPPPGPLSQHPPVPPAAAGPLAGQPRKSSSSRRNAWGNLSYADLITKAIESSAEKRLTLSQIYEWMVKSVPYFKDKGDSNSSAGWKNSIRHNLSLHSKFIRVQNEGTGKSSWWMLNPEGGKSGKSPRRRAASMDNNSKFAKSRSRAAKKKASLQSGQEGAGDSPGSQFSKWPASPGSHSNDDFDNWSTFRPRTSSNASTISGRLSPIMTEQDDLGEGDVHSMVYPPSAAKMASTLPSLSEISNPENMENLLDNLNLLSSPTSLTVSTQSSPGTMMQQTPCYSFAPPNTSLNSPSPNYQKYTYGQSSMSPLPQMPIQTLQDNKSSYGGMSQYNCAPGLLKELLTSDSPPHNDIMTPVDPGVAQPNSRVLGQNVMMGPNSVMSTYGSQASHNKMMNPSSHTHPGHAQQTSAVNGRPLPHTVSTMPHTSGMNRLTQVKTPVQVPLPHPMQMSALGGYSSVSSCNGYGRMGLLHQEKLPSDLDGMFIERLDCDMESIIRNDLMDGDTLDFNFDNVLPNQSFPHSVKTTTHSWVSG
Sequence of Wild-type FOXO3A (Homo sapiens) (O43524 whole entry): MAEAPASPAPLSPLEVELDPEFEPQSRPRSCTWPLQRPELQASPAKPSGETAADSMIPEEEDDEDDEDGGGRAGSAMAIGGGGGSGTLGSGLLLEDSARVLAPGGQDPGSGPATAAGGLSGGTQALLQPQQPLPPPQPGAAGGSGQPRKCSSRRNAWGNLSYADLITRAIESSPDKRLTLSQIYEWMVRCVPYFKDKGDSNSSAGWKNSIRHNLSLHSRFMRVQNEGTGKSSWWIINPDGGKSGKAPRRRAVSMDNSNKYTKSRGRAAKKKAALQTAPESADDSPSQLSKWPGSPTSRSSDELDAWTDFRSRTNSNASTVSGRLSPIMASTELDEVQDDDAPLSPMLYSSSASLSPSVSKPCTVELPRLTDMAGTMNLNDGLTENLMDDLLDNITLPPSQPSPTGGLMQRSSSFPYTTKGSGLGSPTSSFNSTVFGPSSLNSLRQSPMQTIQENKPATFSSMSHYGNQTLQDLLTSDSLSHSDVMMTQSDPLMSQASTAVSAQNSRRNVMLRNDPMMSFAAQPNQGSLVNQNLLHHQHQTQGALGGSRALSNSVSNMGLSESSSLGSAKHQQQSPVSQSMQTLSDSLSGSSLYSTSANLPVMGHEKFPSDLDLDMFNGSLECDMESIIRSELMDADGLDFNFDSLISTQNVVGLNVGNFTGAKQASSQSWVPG
Sequence of Constitutively active FOXO3A constitutively active (AKT phosphorylation sites, residues not stated) (Homo sapiens) (O43524 whole entry): as above

With 3.5 kb atrogin-1 promoter the activity [1] was > 20 fold and the activity [2] was 3 fold.

With `[Cl-].[Li+]` [LiCl, reference compound] the “effect on atrogin-1 induction by dexamethasone” value (atrogin-1 [3]; myotubes, 1 μM dexamethasone 24 hrs) was “unable to decrease”.

With `C[C@@H]1C[C@H]2[C@@H]3CCC4=CC(=O)C=C[C@]4(C)[C@@]3(F)[C@@H](O)C[C@]2(C)[C@@]1(O)C(=O)CO` [dexamethasone, reference compound] the “decrease in levels of phosphorylated Foxo1 and 3” value (Foxo1, 3 and Foxo4; glucocorticoid treatment 24 hrs) was “at least 30%”, the “decrease in level of phosphorylated S6K” value (S6K; dexamethasone treatment 24 hrs) was 10% and the “reduction in mean myotube diameter” value (C2C12 myotubes) was 40%. For the same molecule, the “increase in atrogin-1 mRNA content” value (atrogin-1 [3]; cultured myotubes treated with dexamethasone (1 μM) for 24 hrs) was 2-3 fold and the “fall in ratio of phospho-AKT to total AKT” value (AKT) was 30%.

In the case of `OO` [hydrogen peroxide], the “effect on atrogin-1 expression in myotubes” value (atrogin-1 [4]) is listed as “expression of atrogin-1 rose”.

For “ATFoxo 1: double stranded oligonucleotide with atrogin-1 promoter forkhead site ATAAATA (SEQ ID NO:13/14) (chain 1 GGGATAAATACTGTGCTCGGGCAG; chain 2 CTGCCCGAGCACAGTATTTATCCC; listed as DNA, chemistry not fully specified)”, the “competition of FoxoGST-IGFBP1 complex formation by unlabeled oligonucleotide” value (“competition … by unlabeled oligonucleotide” below) (FoxoGST) was “markedly reduced”, the “binding of FoxoGST to 32P-labeled oligonucleotide” value (shortened to “binding of FoxoGST”) (FoxoGST) was “bound” and the “competition of FoxoGST-AT Foxo 1 complex formation” value (FoxoGST) was “able to block”.

In the case of “ATFoxo 1mut: mutated version of the site, ATCACTA (SEQ ID NO:15/16) (chain 1 GGGATCACTACTGTGCTCGGGCAG; chain 2 CTGCCCGAGCACAGTAGTGATCCC; listed as DNA, chemistry not fully specified)”, the “competition … by unlabeled oligonucleotide” value (FoxoGST) is reported as “did not prevent complex formation”, the “binding of FoxoGST” value (FoxoGST) is reported as “did not bind” and the “competition of FoxoGST-AT Foxo 1 complex formation” value (FoxoGST) is reported as “not”.

For “IGF-1: insulin-like growth factor-1, used at 10 ng/ml (Sigma)”, the “effect on phosphorylated Foxo1, 3 and 4 in either model of atrophy” value (Foxo1, 3 and Foxo4; IGF-1 10 ng/ml, starved or dexamethasone-treated myotubes) was “increased the levels of phosphorylated Foxo1, 3, and 4”, the “S6K phosphorylation after IGF-1 addition” value (S6K; dexamethasone-treated cultures) was “restored S6K phosphorylation” and the “S6K phosphorylation after IGF-1 addition” value (S6K; starved cells) was “remained largely dephosphorylated”. The “effect on atrogin-1 mRNA in either model of atrophy” value (atrogin-1 [3]; IGF-1 10 ng/ml added to starved (6 hrs) or dexamethasone-treated (24 hrs) myotubes) was “suppressed atrogin-1 mRNA to the level in untreated myotubes”, the “effect of IGF-1 on atrogin-1 mRNA” value (atrogin-1 [3]; cells expressing the constitutively active Foxo3) was “did not reduce” and the “decrease in atrogin-1 mRNA content by IGF-1” value (atrogin-1 [3]; cells expressing the wild type Foxo3, IGF-1 10 ng/ml) was 3 fold.

With “oligonucleotide containing an SP1 binding site: unrelated oligonucleotide containing an SP1 binding site (SEQ ID NO:11/12) (chain 1 ATTCGATCGGGGCGGGGCGAG; chain 2 CTCGCCCCGCCCCGATCGTAA; listed as DNA, chemistry not fully specified) [reference compound]” the “competition … by unlabeled oligonucleotide” value (FoxoGST) was “did not prevent complex formation”.

B1: IGFBP1 oligonucleotide: control oligonucleotide containing a known forkhead site from the IGFBP1 promoter (SEQ ID NO:9/10) (nucleic acid)
chain 1: CTAGCAAGCAAAACAAACTTATTTTGAACACGGGG
chain 2: CCCCGTGTTCAAAATAAGTTTGTTTTGCTTGCTAG
modifications: listed as DNA, chemistry not fully specified
With B1 the “competition … by unlabeled oligonucleotide” value (FoxoGST) was “prevented formation” and the “binding of FoxoGST” value (FoxoGST) was “bound”.
